Measured values from ChEMBL document CHEMBL6177982, “Structural Optimization of Pyrazole Compounds as Hsp90 Regulators with Enhanced Antitumor Activity” (J Med Chem, 2025).
Calls of active or inactive are those of the source. The calls are words filed in the database; no cut-off is given here.

Key:
[1] = Stability of compound in simulated gastric fluid at 100 uM incubated for 12 hrs; assay type: physicochemical; conditions: simulated gi fluid
[2] = Metabolic stability in human liver microsomes assessed as clearance at 1 uM preincubated for 5 mins followed by NADPH addition and measured up to 120 mins by LC-MS/MS analysis; assay type: ADME, Microsome; conditions: time < 125 min, read-out: CLH
[3] = target: T1, Heat shock protein HSP 90-alpha (Homo sapiens, UniProt P07900); test: Covalent binding affinity to recombinant full-length HSP90alpha (unknown origin) at C598 residue assessed as appearance of compound-modified peptide incubated for 12 hrs by LC-MS/MS analysis
HCT-116 [4] = test: Antiproliferative activity against human HCT-116 cells assessed as inhibition of cell proliferation incubated for 48 hrs by MTT assay; assay type: functional, cell-based; conditions: HCT-116, 48 h
[5] = Tmax in male Sprague-Dawley rat at 10 mg/kg, IG by LC-MS/MS analysis; assay type: ADME, organism-based; conditions: in vivo, po
HCT-116 [6] = test: Antiproliferative activity against human HCT-116 cells assessed as inhibition of cell proliferation incubated for 24 hrs by MTT assay; assay type: functional, cell-based; conditions: HCT-116, 24 h
HCT-116 [7] = test: Induction of AKT degradation in human HCT-116 cells incubated for 24 hrs by Western blot analysis; assay type: cell-based; conditions: dose 0.1-5 µM
[8] = target: T2, Heat shock protein HSP 90-beta/Hsp90 co-chaperone Cdc37 (Homo sapiens) (UniProt P08238+Q16543); test: Inhibition of His-tagged HSP90(unknown origin)/GST-tagged CDC37 (unknown origin) protein-protein interaction at 100 uM preincubated with HSP90 for 1 hrs followed by CDC37 addition and measured after 1 hrs by HTRF assay relative to control; assay type: protein-complex assay
Homo sapiens = species: Homo sapiens; test: Covalent binding affinity to His-tagged C-terminal HSP90 C598A mutant (unknown origin) assessed as two phase melting curve at 100 uM incubated for 4 hrs by SYPRO fluorescent dye based thermal shift assay
[9] = Toxicity in female Balb/c nude mouse xenografted with human HCT-116 cells assessed as pathological changes in spleen at 5 to 30 mg/kg, ip administered every two days for 14 days by H and E staining based analysis; assay type: organism-based; conditions: in vivo, 336 h, dose 5-30 mg/kg, time 14 day
[10] = Clearance in male Sprague-Dawley rat at 1 mg/kg, iv by LC-MS/MS analysis; assay type: ADME, organism-based; conditions: in vivo
[11] = Half-life in male Sprague-Dawley rat at 10 mg/kg, IG by LC-MS/MS analysis; assay type: ADME, organism-based; conditions: in vivo, po
[12] = Cmax in male Sprague-Dawley rat at 5 mg/kg, ip by LC-MS/MS analysis; assay type: ADME, organism-based; conditions: in vivo
[13] = Cmax in male Sprague-Dawley rat at 1 mg/kg, iv by LC-MS/MS analysis; assay type: ADME, organism-based; conditions: in vivo
[14] = Toxicity in female Balb/c nude mouse xenografted with human HCT-116 cells assessed as effect on spleen weight at 5 to 30 mg/kg, ip administered every two days for 14 days; assay type: organism-based; conditions: in vivo, 336 h, dose 5-30 mg/kg, time 14 day
[15] = Toxicity in female Balb/c nude mouse xenografted with human HCT-116 cells assessed as effect on lung weight at 5 to 30 mg/kg, ip administered every two days for 14 days; assay type: organism-based; conditions: in vivo, 336 h, dose 5-30 mg/kg, time 14 day
HCT-116 [16] = test: Induction of CDK4 degradation in human HCT-116 cells incubated for 24 hrs by Western blot analysis; assay type: cell-based; conditions: dose 0.1-5 µM
[17] = Toxicity in female Balb/c nude mouse xenografted with human HCT-116 cells assessed as pathological changes in lung at 5 to 30 mg/kg, ip administered every two days for 14 days by H and E staining based analysis; assay type: organism-based; conditions: in vivo, 336 h, dose 5-30 mg/kg, time 14 day
[18] = target: T2, Heat shock protein HSP 90-beta/Hsp90 co-chaperone Cdc37 (Homo sapiens); test: Inhibition of Myc-tagged HSP90 (unknown origin)/CDC37 (unknown origin) protein-protein interaction transfected in human HCT-116 cells incubated for 12 hrs by co-immunoprecipitation analysis; assay type: cell-based; conditions: dose 0.5-5 µM
[19] = Clearance in male Sprague-Dawley rat at 10 mg/kg, IG by LC-MS/MS analysis; assay type: ADME, organism-based; conditions: in vivo, po
[20] = Metabolic stability in human liver microsomes assessed as terminal elimination half-life at 1 uM preincubated for 5 mins followed by NADPH addition and measured up to 120 mins by LC-MS/MS analysis; assay type: ADME, Microsome; conditions: time < 125 min, read-out: LambdaZ (converted)
HCT-116 [21] = test: Inhibition of Myc-tagged HSP90 C598A mutant (unknown origin)/AKT(unknown origin) protein-protein interaction transfected in human HCT-116 cells at 1 to 5 uM incubated for 12 hrs by co-immunoprecipitation analysis; assay type: cell-based; conditions: dose 1-5 µM
HT-1080 = test: Antiproliferative activity against human HT-1080 cells assessed as inhibition of cell proliferation incubated for 72 hrs by MTT assay; assay type: functional, cell-based; conditions: HT-1080, 72 h
[22] = Metabolic stability in rat liver microsomes assessed as parent compound remaining at 1 uM preincubated for 5 mins followed by NADPH addition and measured after 30 mins by LC-MS/MS analysis; assay type: ADME, Microsome; conditions: time 35 min, read-out: Stability
[23] = Toxicity in female Balb/c nude mouse xenografted with human HCT-116 cells assessed as effect on body weight at 5 to 30 mg/kg, ip administered every two days for 14 days; assay type: organism-based; conditions: in vivo, 336 h, dose 5-30 mg/kg, time 14 day
HCT-116 [24] = test: Inhibition of Myc-tagged HSP90 C598A mutant (unknown origin)/CDK4 (unknown origin) protein-protein interaction transfected in human HCT-116 cells at 1 to 5 uM incubated for 12 hrs by co-immunoprecipitation analysis; assay type: cell-based; conditions: dose 1-5 µM
[25] = Metabolic stability in rat liver microsomes assessed as clearance at 1 uM preincubated for 5 mins followed by NADPH addition and measured up to 120 mins by LC-MS/MS analysis; assay type: ADME, Microsome; conditions: time < 125 min, read-out: CLH
HCT-116 [26] = test: Antitumor activity against human HCT-116 cells xenografted in female Balb/c nude mouse assessed as inhibition of tumor growth at 5 to 30 mg/kg, ip administered every two days for 14 days; assay type: functional, organism-based; conditions: dose 5-30 mg/kg, time 14.0 day
[27] = Toxicity in female Balb/c nude mouse xenografted with human HCT-116 cells assessed as pathological changes in liver at 5 to 30 mg/kg, ip administered every two days for 14 days by H and E staining based analysis; assay type: organism-based; conditions: in vivo, 336 h, dose 5-30 mg/kg, time 14 day
[28] = Bioavailability in male Sprague-Dawley rat at 5 mg/kg, ip by LC-MS/MS analysis; assay type: ADME, organism-based; conditions: in vivo
[29] = target: T1, Heat shock protein HSP 90-alpha; test: Binding affinity to HSP90alpha (unknown origin) assessed as dissociation constant by ITC analysis
HCT-116 [30] = test: Inhibition of Myc-tagged HSP90 (unknown origin)/CDK4 (unknown origin) protein-protein interaction transfected in human HCT-116 cells at 1 to 5 uM incubated for 12 hrs by co-immunoprecipitation analysis; assay type: cell-based; conditions: dose 1-5 µM
HCT-116 [31] = test: Antiproliferative activity against human HCT-116 cells assessed as inhibition of cell proliferation incubated for 72 hrs by MTT assay; assay type: functional, cell-based; conditions: HCT-116, 72 h
[32] = Permeability of compound at pH 7.4 incubated for 4 hrs by PAMPA based UV analysis; assay type: ADME; conditions: read-out: permeability
[33] = Metabolic stability in rat liver microsomes assessed as terminal elimination half-life at 1 uM preincubated for 5 mins followed by NADPH addition and measured up to 120 mins by LC-MS/MS analysis; assay type: ADME, Microsome; conditions: time < 125 min, read-out: LambdaZ (converted)
[34] = Bioavailability in male Sprague-Dawley rat at 10 mg/kg, IG by LC-MS/MS analysis; assay type: ADME, organism-based; conditions: in vivo, po

Stability [1]: Stable | microsomal CLint at 1 µM [2]: 26 µL/min/mg | Activity [3]: Active | IC50 (HCT-116 [4]): 4.18 µM | Tmax [5]: 52.8 min | IC50 (HCT-116 [6]): 6.36 µM | inhibition [8]: 92.9% | Activity (Homo sapiens): inactive | clearance [10]: 11.8 mL/min/kg | half-life [11]: 121 min | Cmax [12]: 8350 ng/mL | Cmax [13]: 3680 ng/mL | inhibition [18]: Dose-dependent-effect | CL/F [19]: 18 mL/min/kg | half-life at 1 µM [20]: 53.4 min | IC50 (HT-1080): 2.71 µM | remaining at 0.5 h, 1 µM [22]: 58% | microsomal CLint at 1 µM [25]: 55 µL/min/mg | bioavailability [28]: 92.5% | Kd [29]: 3.96 µM | IC50 (HCT-116 [31]): 1.08 µM | Papp at 4 h [32]: 42.6 ×10⁻⁶ cm/s | half-life at 1 µM [33]: 25.2 min | bioavailability [34]: 67.2%
Compound: O=S(=O)(/C=C/c1cn(-c2ccccc2)nc1-c1cccnc1)c1ccccc1
Activity (HCT-116 [7]): Dose-dependent-effect | Activity [9]: Non-toxic | Activity [14]: Non-toxic | Activity [15]: Non-toxic | Activity (HCT-116 [16]): Dose-dependent-effect | Activity [17]: Non-toxic | inhibition (HCT-116 [21]): inactive | Activity [23]: Non-toxic | inhibition (HCT-116 [24]): inactive | Activity (HCT-116 [26]): Active | Activity [27]: Non-toxic | inhibition (HCT-116 [30]): Active
